Measured values published in patent US9133109B2, “Method for preparing bromourea” (Bromine Compounds Ltd., priority 2010, dated 2015).
Blank lines part the entries; values can stand above or below the compound they belong to.

Tests used:
[1] = system: Pseudomonas aeruginosa (ATCC 15442); test: Biocidal activity against simulated biofilm systems (alginate beads); format: cell-based
Text: A biofilm simulation system, alginate beads, developed by the Biofilm Bozeman Institute Montana (Grobe, K. J, Zahller, J and Stewart P. S., 2002 in “Role of dose concentration in biocide efficacy against Pseudomonas aeruginosa Biofilms”, J. Industrial Microbiology & Biotechnology, vol. 29, pp 10-15), was used in order to evaluate the efficacy of bromine/urea against biofilm.
The biofilm simulation was created by entrapping bacteria in alginate gel beads. A plate of R2A agar was streaked with Pseudomonas aeruginosa (ATCC 15442) and incubated at 35° C. overnight. Buffer phosphate at pH 7.2 was used to scrap off the bacteria from the agar plate and to create a suspension. The bacterial suspension was mixed with an equal volume of an aqueous 4% sodium alginate solution, to make a final 2% alginate solution. The alginate and bacterial slurry were placed in a 50 ml syringe attached to a gauge needle (22), connected to a compressed air tank, allowing the syringe be pressurized. At 20 psig pressure a stream of small drops was forced out and dropped into a stirred solution of 50 mM CaCl2. The Ca^+2 cross linked the alginate, and semi solid beads with entrapped bacterial cells were formed. The beads were allowed to stir in the CaCl2 solution for about 20 minutes, and then rinsed in a dilute 5 mM CaCl2 solution. Several flasks containing 100 beads each were incubated overnight at 35° C. on a rotating shaker in a buffer solution (at pH 7) with 5 mM addition of CaCl2 to maintain the beads structure. The resulting beads diameter is about 2 mm
At the beginning of the experiment, the supernatant of the beads buffer suspension containing 5 mM CaCl2 was decanted and replaced by the 100 ml biocide solution with the required concentration. Chlorourea compositions prepared as in Example 1, and bromourera composition prepared as in Example 2, were used for the biocidal experiments. Urea-bromine compositions prepared by dissolving urea 15.02 g (250.3 mmol, 15% concentration) and 1.17 g Br2 (7.32 mmol, 1.17% concentration) in 84 g H2O (34.2:1 urea:Br2 molar ratio). After different interval contact times, 10 beads were removed and placed in a 5 g/l sodium thiosulfate solution containing 50 mM sodium citrate. The sodium citrate was used to dissolve the alginate gel and release the bacteria into the solution. The neutralizer-citrate solution was placed in the refrigerator for 2 hours, than diluted and placed on R2A agar plates using pour plate technique. The plates were incubated at 35° C. for 24-48 hours and counted. The efficacy and toxicity of the neutralizer were checked as well as a control experiment without biocide addition. Four concentrations (0.5, 1, 2.5 and 5 ppm) were tested at four different contact times (5, 15, 30, and 60 min). Table 1-2 describe the surviving colony forming units (CFU) of the bacteria after different biocides treatment at different contact times.

[2] = Stability of the prepared halourea solution; format: physicochemical; conditions: aqueous chlorourea solution, 1.27% as total Cl2
Experimental: In a 250 ml round bottom flask equipped with a magnetic stir bar, a dropping funnel and a thermocouple, 46.04 g urea (Mw 60, 767 mmol) was dissolved in 35.3 g H2O, followed by the addition (upon cooling, exothermic) of 5.37 g of 32% HCl (Mw 36.64, 46.9 mmol). To the solution was added upon cooling 13.3 g of an aq. 10.7% NaOCl solution (wt % as active Cl2, 20 mmol) during 14 min. A slightly yellow solution was obtained retaining 1.27% Cl2 (wt % as total Cl2, iodometric titration, in relation to 1.5% wt % theoretical as Cl2). […] The solution was stable for at least 1 week.
In a 250 ml round bottom flask equipped with a magnetic stir bar, a dropping funnel and a thermocouple, 46 g urea (Mw 60, 767 mmol) was dissolved in 31.8 g H2O, followed by the addition (upon cooling, exothermic) of 8.96 g of 48% HBr (Mw 80.92, 53.15 mmol). To the solution was added upon cooling 13.4 g of an aq. 10.7% NaOCl solution (wt %, as total Cl2, 20.2 mmol) during 10 min. An orange solution was obtained retaining 1% Cl2 (wt %, as total Cl2, iodometric titration, in relation to 1.43% theoretical). […] The solution was stable for at least 24 hrs.

[3] = biocide 0.5 ppm as Cl2, contact time 0 (min)
[4] = biocide 0.5 ppm as Cl2, contact time 5 min
[5] = biocide 0.5 ppm as Cl2, contact time 15 min
[6] = biocide 0.5 ppm as Cl2, contact time 30 min
[7] = biocide 0.5 ppm as Cl2, contact time 60 min
[8] = biocide 1 ppm as Cl2, contact time 0 (min)
[9] = biocide 1 ppm as Cl2, contact time 5 min
[10] = biocide 1 ppm as Cl2, contact time 15 min
[11] = biocide 1 ppm as Cl2, contact time 30 min
[12] = biocide 1 ppm as Cl2, contact time 60 min
[13] = biocide 2.5 ppm as Cl2, contact time 0 (min)
[14] = biocide 2.5 ppm as Cl2, contact time 5 min
[15] = biocide 2.5 ppm as Cl2, contact time 15 min
[16] = biocide 2.5 ppm as Cl2, contact time 30 min
[17] = biocide 2.5 ppm as Cl2, contact time 60 min
[18] = biocide 5 ppm as Cl2, contact time 0 (min)
[19] = biocide 5 ppm as Cl2, contact time 5 min
[20] = biocide 5 ppm as Cl2, contact time 15 min
[21] = biocide 5 ppm as Cl2, contact time 30 min
[22] = biocide 5 ppm as Cl2, contact time 60 min

SMILES: NC(=O)NBr [bromourea]
survival of bacteria (CFU) [1, 3]: 9.22 × 10^6 CFU
survival of bacteria (CFU) [1, 4]: 8.10 × 10^6 CFU
survival of bacteria (CFU) [1, 5]: 8.00 × 10^6 CFU
survival of bacteria (CFU) [1, 6]: 3.50 × 10^6 CFU
survival of bacteria (CFU) [1, 7]: 7.37 × 10^5 CFU
survival of bacteria (CFU) [1, 8]: 9.22 × 10^6 CFU
survival of bacteria (CFU) [1, 9]: 9.30 × 10^6 CFU
survival of bacteria (CFU) [1, 10]: 1.73 × 10^6 CFU
survival of bacteria (CFU) [1, 11]: 1.00 × 10^4 CFU
survival of bacteria (CFU) [1, 12]: <1.00 CFU
survival of bacteria (CFU) [1, 13]: 9.22 × 10^6 CFU
survival of bacteria (CFU) [1, 14]: 2.72 × 10^6 CFU
survival of bacteria (CFU) [1, 15]: 6.08 × 10^2 CFU
survival of bacteria (CFU) [1, 16]: 5.00 × 10^1 CFU
survival of bacteria (CFU) [1, 17]: <1.00 CFU
survival of bacteria (CFU) [1, 18]: 9.22 × 10^6 CFU
survival of bacteria (CFU) [1, 19]: 3.00 × 10^5 CFU
survival of bacteria (CFU) [1, 20]: <1.00 CFU
survival of bacteria (CFU) [1, 21]: <1.00 CFU
survival of bacteria (CFU) [1, 22]: <1.00 CFU

time for which the solution was stable [2]: at least 1 week
SMILES: NC(=O)NCl [chlorourea]
survival of bacteria (CFU) [1, 3]: 2.28 × 10^7 CFU
survival of bacteria (CFU) [1, 4]: 2.80 × 10^7 CFU
survival of bacteria (CFU) [1, 5]: 2.43 × 10^7 CFU
survival of bacteria (CFU) [1, 6]: 2.28 × 10^7 CFU
survival of bacteria (CFU) [1, 7]: 1.00 × 10^7 CFU
survival of bacteria (CFU) [1, 8]: 2.28 × 10^7 CFU
survival of bacteria (CFU) [1, 9]: 1.89 × 10^7 CFU
survival of bacteria (CFU) [1, 10]: 1.61 × 10^7 CFU
survival of bacteria (CFU) [1, 11]: 1.66 × 10^7 CFU
survival of bacteria (CFU) [1, 12]: 6.40 × 10^5 CFU
survival of bacteria (CFU) [1, 13]: 2.28 × 10^7 CFU
survival of bacteria (CFU) [1, 14]: 2.20 × 10^7 CFU
survival of bacteria (CFU) [1, 15]: 1.42 × 10^7 CFU
survival of bacteria (CFU) [1, 16]: 3.56 × 10^5 CFU
survival of bacteria (CFU) [1, 17]: 1.58 × 10^3 CFU
survival of bacteria (CFU) [1, 18]: 2.28 × 10^7 CFU
survival of bacteria (CFU) [1, 19]: 2.16 × 10^7 CFU
survival of bacteria (CFU) [1, 20]: 1.00 × 10^6 CFU
survival of bacteria (CFU) [1, 21]: 3.25 × 10^3 CFU
survival of bacteria (CFU) [1, 22]: <1.00 CFU
